# EP2970215B1, “PYRROLIDINE DERIVATIVES, PHARMACEUTICAL COMPOSITIONS CONTAINING THEM, AND THEIR USE IN THERAPY” (AbbVie Deutschland GmbH & Co. KG, priority 2013, dated 2014)
# Molecular target: T1, human GlyT1c transporter (Homo sapiens, UniProt P48067)
# T1 construct: expressed in transfected cells; host or cells: CHO cells (recombinant; line hGlyT1c_5_CHO is named for the uptake assay)
# T1 sequence (P48067 1-706): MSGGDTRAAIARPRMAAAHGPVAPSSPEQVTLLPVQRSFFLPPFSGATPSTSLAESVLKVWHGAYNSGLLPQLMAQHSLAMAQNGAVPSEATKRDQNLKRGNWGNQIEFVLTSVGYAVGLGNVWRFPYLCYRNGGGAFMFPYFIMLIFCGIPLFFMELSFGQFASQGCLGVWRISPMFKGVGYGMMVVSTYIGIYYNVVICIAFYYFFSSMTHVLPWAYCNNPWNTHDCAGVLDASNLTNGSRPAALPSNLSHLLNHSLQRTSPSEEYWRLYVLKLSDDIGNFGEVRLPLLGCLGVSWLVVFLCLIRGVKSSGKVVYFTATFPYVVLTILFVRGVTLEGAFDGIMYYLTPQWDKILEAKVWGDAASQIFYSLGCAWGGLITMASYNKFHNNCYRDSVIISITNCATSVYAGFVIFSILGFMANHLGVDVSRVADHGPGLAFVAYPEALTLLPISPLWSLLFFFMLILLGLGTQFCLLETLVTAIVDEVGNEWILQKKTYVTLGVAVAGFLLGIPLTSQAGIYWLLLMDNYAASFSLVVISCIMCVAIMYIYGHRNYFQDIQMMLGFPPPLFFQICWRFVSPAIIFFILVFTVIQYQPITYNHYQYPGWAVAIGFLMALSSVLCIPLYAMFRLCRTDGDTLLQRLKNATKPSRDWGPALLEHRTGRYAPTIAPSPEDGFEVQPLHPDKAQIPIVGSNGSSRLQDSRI
# Experiment: Radioligand binding assay using recombinant CHO cell membranes expressing human GlyT1
# Conditions: radioligand binding, recombinant CHO cell membranes expressing human GlyT1c
# Description: 2. Radioligand binding assays using recombinant CHO cell membranes expressing human GlyT1: […]
row,Compound,Ki
1,"CCCCCCNC1CN(S(=O)(=O)c2cn(C)cn2)CC1[C@H]1CCCO1 (stereo partly drawn) [Example 820, N-Hexyl-1-[(1-methyl-1H-imidazol-4-yl)sulfonyl]-4-[(2R)-tetrahydrofuran-2-yl]pyrrolidin-3-amine]",≤ 10000 nM
2,"CCCCCCNC1CN(S(=O)(=O)c2cn(C)cn2)CC1[C@@H]1CCCO1 (stereo partly drawn) [Example 821, N-hexyl-1-[(1-methyl-1H-imidazol-4-yl)sulfonyl]-4-[(2S)-tetrahydrofuran-2-yl]pyrrolidin-3-amine]",≤ 10000 nM
3,"Cn1cnc(S(=O)(=O)N2CC(Nc3ccc(F)c(Cl)c3)C([C@@H]3CCCO3)C2)c1 (stereo partly drawn) [Example 825, N-(3-chloro-4-fluorophenyl)-1-[(1-methyl-1H-imidazol-4-yl)sulfonyl]-4-[(2S)-tetrahydrofuran-2-yl]pyrrolidin-3-amine]",≤ 1000 nM
4,"(3R,4S)-4-(1,3-dioxan-2-yl)-N,N-dihexyl-1-[(1-methyl-1H-imidazol-4-yl)sulfonyl]pyrrolidin-3-amine [Example 909]",≤ 1000 nM

# More lines, now with the values ahead:
row,Ki,Compound
1,≤ 10000 nM,"Cn1cnc(S(=O)(=O)N2C[C@H](Nc3ccc4c(c3)N(Cc3ccccc3)CC4)[C@@H](c3ccccc3)C2)c1 [Example 826, 1-benzyl-N-{(3R,4S)-1-[(1-methyl-1H-imidazol-4-yl)sulfonyl]-4-phenylpyrrolidin-3-yl}-2,3-dihydro-1H-indol-6-amine]"
2,≤ 10 nM,"Cn1cc(S(=O)(=O)N2C[C@H](Nc3cccc(OC(F)(F)F)c3)[C@@H](c3ccc(F)cc3)C2)nn1 [Example 837, (3R,4S)-4-(4-fluorophenyl)-1-[(1-methyl-1H-1,2,3-triazol-4-yl)sulfonyl]-N-[3-(trifluoromethoxy)phenyl]pyrrolidin-3-amine]"
3,≤ 10 nM,"Cn1cc(S(=O)(=O)N2C[C@H](Nc3cccc(C(F)(F)F)c3)[C@@H](c3ccc(F)cc3)C2)nn1 [Example 839, (3R,4S)-4-(4-fluorophenyl)-1-[(1-methyl-1H-1,2,3-triazol-4-yl)sulfonyl]-N-[3-(trifluoromethyl)phenyl]pyrrolidin-3-amine]"
4,≤ 10 nM,"Cn1cc(S(=O)(=O)N2C[C@H](Nc3ccc(F)c(Cl)c3)[C@@H](c3ccc(F)cc3)C2)nn1 [Example 842, (3R,4S)-N-(3-chloro-4-fluorophenyl)-4-(4-fluorophenyl)-1-[(1-methyl-1H-1,2,3-triazol-4-yl)sulfonyl]pyrrolidin-3-amine]"
5,≤ 10 nM,"Cn1cnc(S(=O)(=O)N2C[C@H](Nc3cc(C(F)(F)F)c(F)cn3)[C@@H](c3ccc(F)cc3)C2)c1 [Example 865, 5-fluoro-N-{(3R,4S)-4-(4-fluorophenyl)-1-[(1-methyl-1H-imidazol-4-yl)sulfonyl]pyrrolidin-3-yl}-4-(trifluoromethyl)pyridin-2-amine]"
6,≤ 100 nM,"Cn1cnc(S(=O)(=O)N2CC3c4ccccc4CCC3(NCc3ccc(C(F)(F)F)cc3Cl)C2)c1 (stereo not shown) [Example 890, N-[2-chloro-4-(trifluoromethyl)benzyl]-2-[(1-methyl-1H-imidazol-4-yl)sulfonyl]-1,2,3,4,5,9b-hexahydro-3aH-benzo[e]isoindol-3a-amine]"
